Data set [1] relates to HCV replicon cells Huh 9B. Description: HCV replicon assay (luciferase readout). Format: cell-based. Here is the method:
(§1) HCV replicon cells Huh 9B (ReBlikon), containing the firefly luciferase-ubiquitin-neomycin phosphotransferase fusion protein and EMCV-IRES driven HCV polyprotein with cell culture adaptive mutations.
Cells were cultured at 37° C. in a 5% CO2 environment and split twice a week on seeding at 2×10^6 cells/flask on day 1 and 1×10^6 3 days later. G418 at 0.5 mg/ml was added to the culture medium but not the assay medium.
The culture medium consisted of DMEM with […] glucose and glutamax (Gibco 61965-026) supplemented with 1× non-essential amino acids (Invitrogen 11140-035), penicillin (100 IU/ml)/streptomycin (100 μg/ml) (Invitrogen 15140-122), FCS (10%, 50 ml) and 1 mg/ml G418 (Invitrogen 10131-027) & 10% Australian foetal calf serum (Invitrogen 10099-141).
A flask of cells was trypsinised and a cell count carried out. Cells were diluted to 100,000 cells/ml and 100 μl of this used to seed one opaque white 96-well plate (for the replicon assay) and one flat-bottomed clear plate (for the tox assay) for every seven compounds to be tested for IC50. Wells G12 and H12 were left empty in the clear plate as the blank. Plates were then incubated at 37° C. in a 5% CO2 environment for 24 h.
(§2) On the following day compound dilutions are made up in medium at twice their desired final concentration in a clear round bottomed plate. All dilutions have a final DMSO concentration of 1%.
Once the dilution plate had been made up, controls and compounds were transferred to the assay plate (containing the cells) at 100 μl /well in duplicate plates. Exception: no compound was added to wells A1 and A2 of either plate and 100 μl of 1% DMSO was added to these instead. Plates were then incubated at 37° C. with 5% CO2 for 72 h.
At the end of the incubation time, the cells in the white plate were harvested by washing 23.5 mM beetle luciferin (Promega E1603), 26 mM ATP (Sigma 0-2060) in […] Tris buffer pH 7.8 aliquoted and stored at −80 C was thawed and diluted 1:50 in luciferase assay buffer (20 mM Tricine (Sigma T-0377), 1.07 mM magnesium carbonate hydroxide (Sigma M-5671), 0.1 mM EDTA (Sigma E-5134), 2.67 mM MgSO4 (BDH 101514Y), 33.3 mM dithiothreitol (Sigma 150460) pH 7.8).
The M injector of the microplate luminometer (Lmax, Molecular Devices) was primed with 5×300 μl injections of the diluted substrate. After 5-60 min incubation in lysis buffer at room temperature, a plate was inserted into the luminometer and 100 μl luciferase assay reagent was added by the injector on the luminometer. The signal was measured using a 1 second delay followed by a 4 second measurement programme.

Data set [2] relates to HCV replicon cells Huh 9B. Format: cell-based. As for the experimental part: as §1
A flask of cells was trypsinised and a cell count carried out. […] Wells G12 and H12 were left empty in the clear plate as the blank. Plates were then incubated at 37° C. in a 5% CO2 environment for 24 h.
as §2
Exception: no compound was added to wells A1 and A2 of either plate and 100 μl of 1% DMSO was added to these instead. Plates were then incubated at 37° C. with 5% CO2 for 72 h.
The clear plate was stained with 100 μl 0.5% methylene blue in 50% ethanol at room temperature for 1 h, followed by solvation of the absorbed methylene blue in 100 μl per well of 1% lauroylsarcosine. Absorbance of the plate was measured on a microplate spectrophotometer (Molecular Devices) and the absorbance for each concentration of compound expressed as a proportion of the relative DMSO control.

The mark [3] stands for this setting: Hepatitis C virus, 72 h, concentration reducing replicon level (luciferase activity) by 50% vs untreated cell control, 72 h incubation.
Where [4] appears, read: concentration reducing total cell area by 50% relative to DMSO controls, methylene blue, absorbance 620 nm, 72 h incubation.

Read-outs that look alike come from different tables or passages of the source. Bounds are passed on as bounds.

With `Cc1ccc(NC(=O)C(C)C)cc1-c1ccc(C(=O)Nc2ccc(CN3CCS(=O)(=O)CC3)cc2)cc1` [Example 183, 5′-Isobutyrylamino-2′-methyl-biphenyl-4-carboxylic acid [4-(1,1-dioxo-1lambda*6*-thiomorpholin-4-ylmethyl)-phenyl]-amide], the IC50 in data set [1] (setting [3]) was less than 1000 nM. Besides, the TD50 result in data set [2] (setting [4]) was “* (* < 50 μM)”.
Molecule `Cc1ccc(CNC(CO)Cc2cnc[nH]2)cc1-c1ccc(C(=O)Nc2ccc(N3CCOCC3)cc2)cc1` (centres unmarked) [Example 95, 5′-{[1-Hydroxymethyl-2-(3H-imidazol-4-yl)-ethylamino]-methyl}-2′-methyl-biphenyl-4-carboxylic acid (4-morpholin-4-yl-phenyl)-amide] gave an IC50 in data set [1] (setting [3]) of 1000 to 5000 nM. Also, the TD50 result in data set [2] (setting [4]) is reported as “* (* < 50 μM)”.
As for `Cc1cccc(CNC(=O)c2ccc(-c3cc(NC(=O)c4ccc(N5CCOCC5)cc4)ccc3C)cc2)c1` [Example 89, 2′-Methyl-5′-(4-morpholin-4-yl-benzoylamino)-biphenyl-4-carboxylic acid 3-methyl-benzylamide], the IC50 in data set [1] (setting [3]) lay in the range of 1000 to 5000 nM. Also, in data set [2] (setting [4]), the TD50 entry was “** (** > 50 μM)”.
In turn, `Cc1ccc(C(=O)Nc2ccc(N3CCOCC3)cc2)cc1-c1ccc(C(=O)NCc2ccsc2)cc1` [Example 40, 6-Methyl-biphenyl-3,4′-dicarboxylic acid 3-[(4-morpholin-4-yl-phenyl)-amide] 4′-[(thiophen-3-ylmethyl)-amide]] returned an IC50 in data set [1] of 1000 to 5000 nM. In data set [2], the TD50 result is “** (key: * < 50 μM; ** > 50 μM)”.
`CCOC(=O)c1ccc(-c2cc(NC(=O)OC(C)(C)C)ccc2C)cc1` [Example 210, 5′-tert-Butoxycarbonylamino-2′-methyl-biphenyl-4-carboxylic acid ethyl ester]: in data set [1] (setting [3]), the IC50 was in the range of 1000 to 5000 nM. Also, the TD50 result in data set [2] (setting [4]) is listed as “* (* < 50 μM)”.
With `Cc1ccc(NC(=O)C2(C)CC2)cc1-c1ccc(C(=O)Nc2ccc(CN3CCS(=O)(=O)CC3)cc2)cc1` [Example 175, 2′-Methyl-5′-[(1-methyl-cyclopropanecarbonyl)-amino]-biphenyl-4-carboxylic acid [4-(1,1-dioxo-1lambda*6*-thiomorpholin-4-ylmethyl)-phenyl]-amide], the IC50 in data set [1] (setting [3]) was less than 1000 nM. For the same molecule, the TD50 result in data set [2] (setting [4]) is reported as “* (* < 50 μM)”.
Consider `Cc1ccc(NC(=O)CC2CCCCC2)cc1-c1ccc(C(=O)Nc2ccc(CN3CCS(=O)(=O)CC3)cc2)cc1` [Example 165, 5′-(2-Cyclohexyl-acetylamino)-2′-methyl-biphenyl-4-carboxylic acid [4-(1,1-dioxo-1lambda*6*-thiomorpholin-4-ylmethyl)-phenyl]-amide], for which the IC50 in data set [1] (setting [3]) is less than 1000 nM. Besides, in data set [2] (setting [4]), the TD50 result is “* (* < 50 μM)”.
`Cc1ccc(C(=O)Nc2ccc(-n3cncn3)cc2)cc1-c1ccc(C(=O)Nc2ccc(CN3CCS(=O)(=O)CC3)cc2)cc1` [Example 139, 6-Methyl-biphenyl-3,4′-dicarboxylic acid 4′-{[4-(1,1-dioxo-1lambda*6*-thiomorpholin-4-ylmethyl)-phenyl]-amide} 3-[(4-[1,2,4]triazol-1-yl-phenyl)-amide]] had an IC50 in data set [1] of less than 1000 nM. Moreover, the TD50 result in data set [2] is recorded as “* (key: * < 50 μM; ** > 50 μM)”.
The molecule `Cc1cc(C(=O)Nc2ccc(N3CCOCC3)cc2)ccc1-c1cccc(C(=O)Nc2ccc3cn[nH]c3c2)c1` [Example 63, 2′-Methyl-biphenyl-3,4′-dicarboxylic acid 3-[(1H-indazol-6-yl)-amide] 4′-[(4-morpholin-4-yl-phenyl)-amide]] came in with an IC50 in data set [1] of less than 1000 nM. The TD50 result in data set [2] is “* (key: * < 50 μM; ** > 50 μM)”.
Turning to `Cc1ccc(C(=O)Nc2ccc(N3CCOCC3)cc2)cc1-c1ccc(C(=O)N2CCCC2)cc1` [Example 15, 6-Methyl-4′-(pyrrolidine-1-carbonyl)-biphenyl-3-carboxylic acid (4-morpholin-4-yl-phenyl)-amide], the IC50 in data set [1] (setting [3]) is greater than 5000 nM. In data set [2] (setting [4]), the TD50 result is reported as “* (* < 50 μM)”.
For the molecule `Cc1ccc(C(=O)Nc2ccc(N3CCOCC3)cc2)cc1-c1ccc(NC(=O)CNC(=O)c2ccccc2)cc1` [Example 105, 4′-(2-Benzoylamino-acetylamino)-6-methyl-biphenyl-3-carboxylic acid (4-morpholin-4-yl-phenyl)-amide], in data set [1] (setting [3]), the IC50 was in the range of 1000 to 5000 nM. For the same molecule, the TD50 result in data set [2] (setting [4]) is given as “** (** > 50 μM)”.
For `Cc1ccc(C(=O)Nc2ccc(N3CCOCC3)cc2)cc1-c1ccc(CNc2ccc3cn[nH]c3c2)cc1` [Example 97, 4′-[(1H-Indazol-6-ylamino)-methyl]-6-methyl-biphenyl-3-carboxylic acid (4-morpholin-4-yl-phenyl)-amide] the same measures were 1000 to 5000 nM and “** (** > 50 μM)”.
Regarding `CS(=O)(=O)N1CCN(Cc2ccc(NC(=O)c3ccc(-c4cc(NC(=O)NC5CCCCC5)ccc4OC(F)(F)F)cc3)cc2)CC1` [Example 235, 5′-(3-Cyclohexyl-ureido)-2′-trifluoromethoxy-biphenyl-4-carboxylic acid [4-(4-methanesulfonyl-piperazin-1-ylmethyl)-phenyl]-amide], the half-inhibitory concentration (IC50) in data set [1] (setting [3]) was less than 1000 nM. Besides, the TD50 result in data set [2] (setting [4]) was “* (* < 50 μM)”.
In turn, `Cc1ccc(NC(=O)C2CCOCC2)cc1-c1ccc(C(=O)Nc2ccc(CN3CCS(=O)(=O)CC3)cc2)cc1` [Example 170, Tetrahydro-pyran-4-carboxylic acid {4′-[4-(1,1-dioxo-1lambda*6*-thiomorpholin-4-ylmethyl)-phenylcarbamoyl]-6-methyl-biphenyl-3-yl}-amide] registered an IC50 in data set [1] (setting [3]) of less than 1000 nM. In data set [2] (setting [4]), the TD50 entry is on record as “* (* < 50 μM)”.
As to `Cc1ccc(C(=O)NC2CC2)cc1-c1ccc(C(=O)Nc2ccc(N3CCOCC3)cc2)cc1` [Example 17, 6-Methyl-biphenyl-3,4′-dicarboxylic acid 3-cyclopropylamide 4′-[(4-morpholin-4-yl-phenyl)-amide]], the IC50 in data set [1] is 1000 to 5000 nM. In addition, in data set [2], the TD50 entry is given as “* (key: * < 50 μM; ** > 50 μM)”.
`Cc1ccc(C(=O)Nc2ccc(N3CCOCC3)cc2)cc1-c1ccc(C(=O)N2CCN(c3cccc(Cl)c3Cl)CC2)cc1` [Example 37, 4′-[4-(2,3-Dichloro-phenyl)-piperazine-1-carbonyl]-6-methyl-biphenyl-3-carboxylic acid (4-morpholin-4-yl-phenyl)-amide]: the IC50 in data set [1] (setting [3]) is greater than 5000 nM. Besides, the TD50 result in data set [2] (setting [4]) is listed as “** (** > 50 μM)”.
The molecule “6-Methoxy-biphenyl-3,4′-dicarboxylic acid 4′-{[4-(1,1-dioxo-1lambda*6*-thiomorpholin-4-ylmethyl)-phenyl]-amide} 4′{[4-(4-methanesulfonyl-piperazin-1-ylmethyl)-phenyl]-amide} [Example 262]” displayed an IC50 in data set [1] of less than 1000 nM.
For the molecule `Cc1ccc(CNc2ccc3cn[nH]c3c2)cc1-c1ccc(C(=O)Nc2ccc(CN3CCS(=O)(=O)CC3)cc2)cc1` [Example 201, 5′-[(1H-Indazol-6-ylamino)-methyl]-2′-methyl-biphenyl-4-carboxylic acid [4-(1,1-dioxo-1lambda*6*-thiomorpholin-4-ylmethyl)-phenyl]-amide], the TD50 result in data set [2] (setting [4]) is “* (* < 50 μM)”.
As to “6-Methyl-biphenyl-3,4′-dicarboxylic acid 4′-[(1H-indol-6-yl)-amide] 3-[(4-morpholin-4-yl-phenyl)-amide] [Example 44]”, the IC50 in data set [1] (concentration reducing replicon level (luciferase activity) by 50% vs untreated cell control, 72 h incubation) is less than 1000 nM.

For the origin of these results see patent US8008303B2, “Biphenyl derivatives and their use in treating hepatitis C” (AstraZeneca AB, priority 2005, dated 2011).
